In US20260151403A1, “NEK7 DEGRADERS AND METHODS OF USE THEREOF” (Captor Therapeutics S.A., priority 2022, published 2026):
Structures can show the parent of a compound that is named as a salt.

Tests used:
NEK7-HiBiT protein = NEK7-HiBiT protein (Homo sapiens, UniProt Q8TDX7); experiment: NEK7-HiBiT degradation assay (Nano-Glo HiBiT Lytic Assay) in HEK293 NEK7-HiBiT cells; format: cell-based; settings: 24 h, conc. 0.1, 1 and 10 μM tested, concentration of the table values not stated, mean of 3 technical replicates
Procedure, shortened: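 HEK293 cells with CRISPR knock-in N-terminal HiBiT-tagged NEK7 exposed to compound for 24 h at 37 °C, 5% CO2. Residual NEK7-HiBiT was read as Nano-Glo HiBiT lytic luminescence and expressed as % of DMSO control across triplicates; compounds run at 0.1, 1 and 10 μM.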

[1] = target: T1, [NEK7]-[compound of formula (I)]-[CRBN/DDB1] complex (Homo sapiens, UniProt Q8TDX7+Q96SW2); experiment: HTRF ternary complex assay; format: binding; settings: dose-response, 180 min at 25° C.; read-out: HTRF ternary complex Average pEC50 by molecule (converted)
Procedure, shortened: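 Mix of 24 nM NEK7, 52.8 nM 6×His-CRBN/Strep-DDB1, 3 nM streptavidin-Eu cryptate and 6.67 nM anti-6×His-d2 in PPI Europium detection buffer with 1 mM DTT, dose-response compound, 0.5% DMSO, 180 min at 25° C. TR-FRET (665/620) read, normalized to DMSO background, Hill-slope fit gave EC50/pEC50.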

[2] = target: T1, [NEK7]-[compound of formula (I)]-[CRBN/DDB1] complex; experiment: AlphaLISA dose response ternary complex formation assay; format: binding; settings: 1 μM compound; normalized to maximum signal of Compound 2 (positive control) and DMSO background; read-out: Normalized AlphaLISA ternary complex average signal at 1 μM molecule
Procedure, shortened: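 Biotinylated NEK7 (200 nM) on streptavidin donor beads and 6×His-CRBN/Strep-DDB1 (200 nM) on anti-His acceptor beads, each at 40 μg/ml and preincubated 30 min, then mixed and added to compound in HBS pH 7.4, 0.1% Tween-20, 1 mM DTT, 2% DMSO. After 30 min at 25 °C, AlphaLISA signal was read (ex 680/em 615 nm) and normalised to DMSO background and maximal Compound 2 signal.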

NEK7-HiBiT protein, sequence (Q8TDX7 whole entry): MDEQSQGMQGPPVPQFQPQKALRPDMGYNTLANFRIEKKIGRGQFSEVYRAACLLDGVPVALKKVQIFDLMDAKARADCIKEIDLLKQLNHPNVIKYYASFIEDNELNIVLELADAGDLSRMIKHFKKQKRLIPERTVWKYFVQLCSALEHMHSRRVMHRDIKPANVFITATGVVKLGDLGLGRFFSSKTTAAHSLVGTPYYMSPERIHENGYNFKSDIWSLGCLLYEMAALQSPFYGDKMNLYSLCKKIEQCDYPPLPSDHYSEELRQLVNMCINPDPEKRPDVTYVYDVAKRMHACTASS
NEK7-HiBiT protein, sequence (Q96SW2 whole entry, further chain): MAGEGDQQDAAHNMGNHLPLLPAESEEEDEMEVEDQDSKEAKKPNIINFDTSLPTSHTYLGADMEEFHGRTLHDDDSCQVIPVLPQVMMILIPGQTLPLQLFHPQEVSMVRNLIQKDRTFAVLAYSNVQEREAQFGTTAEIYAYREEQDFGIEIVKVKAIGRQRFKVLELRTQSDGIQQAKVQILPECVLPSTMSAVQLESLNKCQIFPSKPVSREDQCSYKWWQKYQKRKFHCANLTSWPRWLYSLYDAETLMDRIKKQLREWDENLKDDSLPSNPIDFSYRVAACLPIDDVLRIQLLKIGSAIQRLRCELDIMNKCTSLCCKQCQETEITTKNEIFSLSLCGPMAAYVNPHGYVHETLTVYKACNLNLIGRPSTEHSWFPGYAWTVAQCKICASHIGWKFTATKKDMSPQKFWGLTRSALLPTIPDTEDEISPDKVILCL
NEK7-HiBiT protein, sequence (Q16531 whole entry partner): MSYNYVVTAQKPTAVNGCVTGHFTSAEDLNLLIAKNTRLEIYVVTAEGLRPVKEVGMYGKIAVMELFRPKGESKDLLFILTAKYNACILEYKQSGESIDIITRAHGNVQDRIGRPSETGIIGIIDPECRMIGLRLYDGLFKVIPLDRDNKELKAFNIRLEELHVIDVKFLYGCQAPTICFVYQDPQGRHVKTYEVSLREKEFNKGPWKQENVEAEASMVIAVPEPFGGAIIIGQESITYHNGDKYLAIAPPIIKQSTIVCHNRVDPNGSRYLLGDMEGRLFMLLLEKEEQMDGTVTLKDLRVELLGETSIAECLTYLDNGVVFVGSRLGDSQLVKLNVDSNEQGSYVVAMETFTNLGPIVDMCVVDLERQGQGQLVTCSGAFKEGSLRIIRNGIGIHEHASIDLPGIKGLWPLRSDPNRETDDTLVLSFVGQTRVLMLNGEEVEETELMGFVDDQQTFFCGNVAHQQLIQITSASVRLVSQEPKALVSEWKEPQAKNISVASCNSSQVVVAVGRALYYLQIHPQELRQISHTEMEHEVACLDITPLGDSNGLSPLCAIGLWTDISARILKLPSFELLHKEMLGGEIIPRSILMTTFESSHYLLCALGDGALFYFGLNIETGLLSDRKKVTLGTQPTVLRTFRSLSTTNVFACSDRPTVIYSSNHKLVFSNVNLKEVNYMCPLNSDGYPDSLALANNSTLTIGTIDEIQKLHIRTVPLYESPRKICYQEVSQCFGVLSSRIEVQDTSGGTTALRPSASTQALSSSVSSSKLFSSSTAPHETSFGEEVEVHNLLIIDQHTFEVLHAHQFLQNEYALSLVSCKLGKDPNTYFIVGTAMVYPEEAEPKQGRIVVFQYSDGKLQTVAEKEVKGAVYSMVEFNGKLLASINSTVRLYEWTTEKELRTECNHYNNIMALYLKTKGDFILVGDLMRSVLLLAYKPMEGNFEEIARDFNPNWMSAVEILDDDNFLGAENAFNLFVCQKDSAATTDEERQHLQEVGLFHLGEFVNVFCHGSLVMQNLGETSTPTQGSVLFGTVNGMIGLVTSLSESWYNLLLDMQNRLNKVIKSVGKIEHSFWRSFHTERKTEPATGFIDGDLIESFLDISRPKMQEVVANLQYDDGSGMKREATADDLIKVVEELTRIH
T1 sequence (Q8TDX7 whole entry): as the sequence (Q8TDX7 whole entry) above
T1 sequence (Q96SW2 whole entry): as the sequence (Q96SW2 whole entry, further chain) above
T1 sequence (Q16531 whole entry partner): as the sequence (Q16531 whole entry partner) above

| Structure (SMILES) | EC50 [1] [µM] | activation at 1 µM [2] [%] | Levels of NEK7-HiBiT Protein (as a % of DMSO control) (NEK7-HiBiT protein) |
| --- | --- | --- | --- |
| O=C1CCC(N2Cc3cc(N4CCCCN4)ccc3C2=O)C(=O)N1 (stereo not drawn) [Compound 58, 3-(1-oxo-5-(tetrahydropyridazin-1 (2H)-yl)isoindolin-2-yl)piperidine-2,6-dione] | 0.1 to 0.316 | 20 to 80 | C (Levels of NEK7-HiBiT Protein > 50% and <75%) |
| O=C1CCC(N2C(=O)c3cccc4c(C5CCCCN5)ccc2c34)C(=O)N1 (stereo not drawn) [Compound 59, 3-(2-oxo-6-(piperidin-2-yl)benzo[cd]indol-1 (2H)-yl)piperidine-2,6-dione] | > 3.16 | < 10 | D (Levels of NEK7-HiBiT Protein ≥ 75%) |
| O=C1CCC(N2Cc3cc(C4CCCC(C(F)(F)F)N4)ccc3C2=O)C(=O)N1 (stereo not drawn) [Compound 60, 3-(1-oxo-5-(6-(trifluoromethyl)piperidin-2-yl)isoindolin-2-yl)piperidine-2,6-dione] | 0.316 to 1 | < 10 | C (Levels of NEK7-HiBiT Protein > 50% and <75%) |
| O=C1CCC(N2C(=O)c3ccc(C4CCCCN4)c4cccc2c34)C(=O)N1 (stereo not drawn) [Compound 66, 3-(2-oxo-5-(piperidin-2-yl)benzo[cd]indol-1 (2H)-yl)piperidine-2,6-dione trifluoroacetate] | 0.1 to 0.316 | 10 to 20 | B (Levels of NEK7-HiBiT Protein > 25% and ≤50%) |
| O=C1CCC(N2Cc3cc(C4COCCO4)ccc3C2=O)C(=O)N1 (stereo not drawn) [Compound 68, 3-(5-(1,4-dioxan-2-yl)-1-oxoisoindolin-2-yl)piperidine-2,6-dione] | 0.316 to 1 | 10 to 20 | D (Levels of NEK7-HiBiT Protein ≥ 75%) |
| O=C1CCC(N2Cc3c(csc3C3CCCCO3)C2=O)C(=O)N1 (stereo not drawn) [Compound 71, 3-(4-oxo-1-(tetrahydro-2H-pyran-2-yl)-4H-thieno[3,4-c]pyrrol-5 (6H)-yl)piperidine-2,6-dione] | > 3.16 | < 10 | D (Levels of NEK7-HiBiT Protein ≥ 75%) |
| O=C1CCC(N2Cc3cc(C4CCCCO4)sc3C2=O)C(=O)N1 (stereo not drawn) [Compound 73, 3-(6-oxo-2-(tetrahydro-2H-pyran-2-yl)-4,6-dihydro-5H-thieno[2,3-c]pyrrol-5-yl)piperidine-2,6-dione] | > 3.16 | < 10 | D (Levels of NEK7-HiBiT Protein ≥ 75%) |

Second part, led by results:

| EC50 [1] [µM] | activation at 1 µM [2] [%] | Structure (SMILES) | Levels of NEK7-HiBiT Protein (as a % of DMSO control) (NEK7-HiBiT protein) |
| --- | --- | --- | --- |
| 0.1 to 0.316 | 10 to 20 | O=C1CCC(N2Cc3cc(C4COCCN4)ccc3C2=O)C(=O)N1 (stereo not drawn) [Compound 61, 3-(5-(morpholin-3-yl)-1-oxoisoindolin-2-yl)piperidine-2,6-dione] | C (Levels of NEK7-HiBiT Protein > 50% and <75%) |
| 0.316 to 1 | 20 to 80 | O=C1CCC(N2Cc3cc(C4CCCCCN4)ccc3C2=O)C(=O)N1 (stereo not drawn) [Compound 62, 3-(5-(azepan-2-yl)-1-oxoisoindolin-2-yl)piperidine-2,6-dione] | B (Levels of NEK7-HiBiT Protein > 25% and ≤50%) |
| > 3.16 | < 10 | O=C1CCCC(N2Cc3cc(C4CCCCN4)ccc3C2=O)C(=O)N1 (stereo not drawn) [Compound 65, 3-(1-oxo-5-(piperidin-2-yl)isoindolin-2-yl)azepane-2,7-dione] | C (Levels of NEK7-HiBiT Protein > 50% and <75%) |
| > 3.16 | 10 to 20 | CN1CCNC(c2ccc3c(c2)CN(C2CCC(=O)NC2=O)C3=O)C1 (stereo not drawn) [Compound 67, 3-(5-(4-methylpiperazin-2-yl)-1-oxoisoindolin-2-yl)piperidine-2,6-dione] | B (Levels of NEK7-HiBiT Protein > 25% and ≤50%) |
| > 3.16 | < 10 | O=C1CCC(N2Cc3cc(C4CCCCN4)sc3C2=O)C(=O)N1 (stereo not drawn) [Compound 72, 3-(6-oxo-2-(piperidin-2-yl)-4,6-dihydro-5H-thieno[2,3-c]pyrrol-5-yl)piperidine-2,6-dione] | C (Levels of NEK7-HiBiT Protein > 50% and <75%) |
